# Experimental data taken from patent publication US20210137997A1 (priority 2016, published 2021).
# Where two headings read alike, the source gives them in different places.
# What was measured:
# [1] = system: acne-associated type IA-2 P. acnes strains; format: cell-based, Propionibacterium acnes
# Method: (§1) P. acnes strains and cultures.
# (§2) Extraction, identification, and quantification of extracellular porphyrins. For each strain, porphyrins were extracted using the method described by Kang et al. (Sci Transl Med 7:293ra103 (2015)). Briefly, 500 μL of bacterial culture was extracted in ethyl acetate and acetic acid (4:1, v/v), and solubilized in 1.5M HCl. The absorbance at 405 nm was measured from 200 μL of the soluble phase using a Tecan Genios Spectrophotometer M1000 (Tecan US Inc, Morrisville, N.C.). The standard curve to convert absorbance to concentration was generated using coproporphyrin III standards of known concentration (C654-3, Frontier Sci). Porphyrin levels were measured in P. acnes strain KPA171202 using the quantification method described by Wollenberg et al. (MBio 5:e01286-01214 (2014)). […] Porphyrins were extracted from cultures at stationary phase. […] Bacterial culture density was measured at OD595 for normalization of porphyrin levels. For mass spectrometry experiments, extracted porphyrins were directly injected onto an Agilent 6460 Triple Quad LC/MS system and each strain's m/z in the negative ion mode was identified.
# (§3) Statistical analysis for porphyrin production comparisons. The average amount of porphyrins produced by each strain under each culture condition was calculated based on the data from at least three independent experiments, with at least three replicates for each. The porphyrin levels between strains, groups (acne-associated vs. health-associated), and culture conditions (with treatment vs. without treatment) were estimated in a linear mixed effect model, with random intercepts by trial to account for trial effects. P-values for specific comparisons among groups were corrected using Tukey's method. All statistical analysis was performed using R software (version 3.1.3).
# (§4) To investigate whether different P. acnes strains produce the same porphyrin species, the types of porphyrins secreted by multiple P. acnes strains where characterized using mass spectrometry. Four acne-associated type IA-2 strains, HL053PA1 (RT4), HL045PA1 (RT4), HL043PA1 (RT5), and HL043PA2 (RT5), and three health-associated type II strains, HL001PA1 (RT2), HL103PA1 (RT2), and HL042PA3 (RT6), were examined (Table 1). No difference in the porphyrin species produced by these P. acnes strains was observed. Coproporphyrin III was the dominant porphyrin isomer produced by all strains ([M+H]^+=655.3). Minimal amounts of coproporphyrin I were also detected. Porphyrin levels are measured with the following method. Bacterial cells are collected, and porphyrins are extracted. The concentration of porphyrins is measured spectrophotometrically and normalized to the optical density (also measured spectrophotometrically). Porphyrin levels are therefore measured per bacterial unit.
# [2] = system: P. acnes strain HL025PA1; assay: Extracellular porphyrin production in culture, type I strain with deoR; format: cell-based, Propionibacterium acnes; conditions: 10 μg/mL vitamin B12
# Method: as §1
# as §2, with “For mass spectrometry experiments, extracted porphyrins were directly injected onto an Agilent 6460 Triple Quad LC/MS system and each strain's m/z in the negative ion mode was identified.” left out
# Statistical analysis for porphyrin production comparisons. The average amount of porphyrins produced by each strain under each culture condition was calculated based on the data from at least three independent experiments, with at least three replicates for each. […]
# [3] = system: cbiL (vitamin B12 biosynthesis gene) in acne-associated type IA-2 strains; assay: cbiL gene expression by qRT-PCR, type IA-2 strains; format: cell-based, Propionibacterium acnes; conditions: 10 μg/mL vitamin B12 vs without, normalized to 16S rRNA
# Method: (§5) RNA extraction and cDNA synthesis. For cbiL and deoR gene expression analysis, cells were lysed with bead beating. Total RNA was extracted using the standard phenol-chloroform method and purified using RNeasy kit (Qiagen). DNA was removed using the Turbo DNA-free kit (Life Technologies). RNA quality was assessed using gel electrophoresis. Single-stranded complementary DNA (cDNA) was synthesized using SuperScript III First-Strand Synthesis SuperMix (Life Technologies).
# (§6) Analysis of cbiL gene expression. qRT-PCR was performed using the LightCycler 480 High Resolution Melting Master Mix (Roche) on a LightCycler 480 (Roche) with the following primers: cbiL-forward, 5′-[…]-3′ (SEQ ID NO: 1), and cbiL-reverse, 5′-[…]-3′ (SEQ ID NO: 2). The following qRT-PCR protocol was used: initial denaturation at 95° C. for 5 min, followed by 50 cycles of 95° C. for 10 sec, 62° C. for 30 sec, and 72° C. for 30 sec. The fold change in cbiL gene expression between cultures with vitamin B12 supplementation and cultures without supplementation was calculated. The gene expression level of cbiL in each sample was normalized against the 16S rRNA transcript level. Melting curve analysis was performed using the Light Cycler 480 software Version 1.5 (Roche) to verify the specificity of the amplified products based on their melting temperatures. All reactions were run in triplicate.
# [4] = system: cbiL (vitamin B12 biosynthesis gene) in health-associated type II strains; assay: cbiL gene expression by qRT-PCR, type II strains; format: cell-based, Propionibacterium acnes; conditions: 10 μg/mL vitamin B12 vs without, normalized to 16S rRNA
# Method: as §5, §6
# [5] = system: health-associated type II P. acnes strains; assay: Extracellular porphyrin production in culture, health-associated type II strains; format: cell-based, Propionibacterium acnes
# Method: as §1, §2, §3, §4
# [6] = system: P. acnes strains; format: cell-based, Propionibacterium acnes
# Method: Common to most of the RT4 and RT5 strains, these strains harbor mutations in their 16S and 23S rRNA genes, which confer antibiotic resistance. […] To confirm the findings, an additional three type II strains, HL110PA3, HL106PA1, and HL050PA2, were also tested. […] For each experiment, 5 mL of reinforced clostridial broth was inoculated with 5×10^5 P. acnes cells per mL of culture. Cultures were grown to stationary phase anaerobically at 37° C. in a light-protected box. Cultures were supplemented on day 0 with vitamin B12 (10 μg/mL), 5-ALA (0.1 mg/mL), and/or LA (0.1 mg/mL). As controls, P. acnes strains were also cultured without supplementation. Three to five independent experiments with at least three replicates per experiment were performed for each strain, except strains HL110PA3, HL106PA1, and HL050PA2, which were tested in only one experiment with three replicates.
# Extraction, identification, and quantification of extracellular porphyrins. For each strain, porphyrins were extracted using the method described by Kang et al. (Sci Transl Med 7:293ra103 (2015)). Briefly, 500 μL of bacterial culture was extracted in ethyl acetate and acetic acid (4:1, v/v), and solubilized in 1.5M HCl. The absorbance at 405 nm was measured from 200 μL of the soluble phase using a Tecan Genios Spectrophotometer M1000 (Tecan US Inc, Morrisville, N.C.). The standard curve to convert absorbance to concentration was generated using coproporphyrin III standards of known concentration (C654-3, Frontier Sci). Porphyrin levels were measured in P. acnes strain KPA171202 using the quantification method described by Wollenberg et al. (MBio 5:e01286-01214 (2014)). […] Porphyrins were extracted from cultures at stationary phase. […] Bacterial culture density was measured at OD595 for normalization of porphyrin levels. […]
# [7] = system: cbiL (vitamin B12 biosynthesis gene) in HL025PA1; assay: cbiL gene expression by qRT-PCR, HL025PA1; format: cell-based, Propionibacterium acnes; conditions: 10 μg/mL vitamin B12
# Method: as §5, §6
# [8] = system: P. acnes; conditions: 0.1 mg/mL LA (range 0.1 to 1.0 mg/mL assessed)
# From the text: P. acnes strains and cultures. […] Four RT4 and RT5 P. acnes strains, HL053PA1, HL045PA1, HL043PA1, and HL043PA2, were selected to represent type IA-2 strains, which were associated with the disease based on a 16S metagenomic study (J Invest Dermatol 133:2152-2160 (2013)). […] Three RT2 and RT6 strains, HL001PA1, HL103PA1, and HL042PA3, were selected to represent type II strains that were associated with healthy skin. To confirm the findings, an additional three type II strains, HL110PA3, HL106PA1, and HL050PA2, were also tested. […] For each experiment, 5 mL of reinforced clostridial broth was inoculated with 5×10^5 P. acnes cells per mL of culture. Cultures were grown to stationary phase anaerobically at 37° C. in a light-protected box. Cultures were supplemented on day 0 with vitamin B12 (10 μg/mL), 5-ALA (0.1 mg/mL), and/or LA (0.1 mg/mL). As controls, P. acnes strains were also cultured without supplementation. Three to five independent experiments with at least three replicates per experiment were performed for each strain, except strains HL110PA3, HL106PA1, and HL050PA2, which were tested in only one experiment with three replicates.
compound,measurement,setting,value
vitamin B12,average porphyrin level with vitamin B12 supplementation,"[1]; 10 μg/mL vitamin B12, increasing from 6.5 μM without",9.2 µM
same,fold increase in porphyrin production compared to substrate only,[1]; 10 μg/mL vitamin B12 in combination with 0.1 mg/mL 5-ALA,2.7 fold
same,effect of vitamin B12 on porphyrin production,[2],unaffected
same,average fold change of cbiL gene expression,[3],0.74 fold
same,average fold change of cbiL gene expression,[4],0.24 fold
same,average porphyrin level with vitamin B12 supplementation,"[5]; 10 μg/mL vitamin B12, 1.1 μM without, P≥0.77",1.1 µM
same,further enhancement of porphyrin production compared to substrate only,"[5]; 10 μg/mL vitamin B12 in combination with 0.1 mg/mL 5-ALA, P≥0.94",not in health-associated type II strains
same,counteraction by vitamin B12 of the inhibition of porphyrin biosynthesis by LA,[5]; 0.1 mg/mL LA with 10 μg/mL vitamin B12,not in health-associated type II strains
same,effect of vitamin B12 on porphyrin production level,"[5]; strains HL110PA3, HL106PA1, HL050PA2, 10 μg/mL",not significantly affected
same,response of porphyrin production to vitamin B12 supplementation,"[6]; type I strains, FIG. 12",increased porphyrin production
same,response of porphyrin production to vitamin B12 supplementation,"[6]; type II and type III strains, data not shown",not observed
same,effect on vitamin B12 biosynthesis gene expression,[7],transcriptional repression
"NCC(=O)CCC(=O)O [5-ALA, 5-aminolevulinic acid]",average fold increase in porphyrin production,"[1]; 0.1 mg/mL 5-ALA only vs untreated controls, P<0.0001",2.2 fold
same,average fold increase in porphyrin production,"[5]; 0.1 mg/mL 5-ALA only vs untreated controls, P≤0.06 except HL001PA1",3.4 fold
"CC(=O)CCC(=O)O [LA, levulinic acid]",reduction of porphyrins by LA in combination with vitamin B12,[1],no significant reduction of porphyrins
same,effect on bacterial growth,[8],did not significantly affect the bacterial growth
same,average reduction of porphyrin production compared to untreated cultures,[6],30%
